Consider 12 compounds from patent US20070066627A1, “Hydrazone derivatives for combatting harmful insects and arachnids” (priority 2004, published 2007).

What all share (type): in vivo
Experiment [1] relates to Silverleaf Whitefly (bemisia argentifolii). In words: Silverleaf whitefly test on cotton plants. Conditions: 72 h, cotyledons dipped, adults, 3 days after treatment, read-out: mortality compared to untreated controls. How it is done: 2.5 Silverleaf Whitefly (bemisia argentifolii)
(§1) The active compounds were formulated in 50:50 acetone:water and 100 ppm Kinetic® surfactant.
Selected cotton plants were grown to the cotyledon state (one plant per pot). The cotyledons were dipped into the test solution to provide complete coverage of the foliage and placed in a well-vented area to dry. Each pot with treated seedling was placed in a plastic cup and 10 to 12 whitefly adults (approximately 3-5 day old) were introduced. The insects were collected using an aspirator and an 0.6 cm, non-toxic Tygon® tubing (R-3603) connected to a barrier pipette tip. The tip, containing the collected insects, was then gently inserted into the soil containing the treated plant, allowing insects to crawl out of the tip to reach the foliage for feeding. The cups were covered with a reusable screened lid (150 micron mesh polyester screen PeCap from Tetko Inc). Test plants were maintained in the holding room at about 25° C. and 20-40% relative humidity for 3 days avoiding direct exposure to the fluorescent light (24 hour photoperiod) to prevent trapping of heat inside the cup. Mortality was assessed 3 days after treatment of the plants.

Experiment [2] relates to Cotton Aphid (aphis gossypii). In words: Cotton aphid test on cotton cotyledons. Particulars: 120 h, cotyledons dipped, after 5 days, read-out: mortality in comparison with untreated controls.
Text: 2.2 Cotton Aphid (aphis gossypii)
as §1
Cotton plants at the cotyledon stage (one plant per pot) were infested by placing a heavily infested leaf from the main colony on top of each cotyledon. The aphids were allowed to transfer to the host plant overnight, and the leaf used to transfer the aphids was removed. The cotyledons were dipped in the test solution and allowed to dry. After 5 days, mortality counts were made.

For experiment [3], the system named is 2-Spotted Spider Mite (tetranychus urticae, OP-Resistant Strain). In words: 2-spotted spider mite test on Sieva lima bean plants. Particulars: 120 h, plants dipped, after 5 days, read-out: mortality compared to untreated controls. The procedure: 2.6 2-Spotted Spider Mite (tetranychus urticae, OP-Resistant Strain)
Sieva lima bean plants with primary leaves expanded to 7-12 cm were infested by placing on each a small piece from an infested leaf (with about 100 mites) taken from the main colony. This was done at about 2 hours before treatment to allow the mites to move over to the test plant to lay eggs. The piece of leaf used to transfer the mites was removed. The newly-infested plants were dipped in the test solution and allowed to dry. The test plants were kept under fluorescent light (24 hour photoperiod) at about 25° C. and 20-40% relative humidity. After 5 days, one leaf was removed and mortality counts were made.

For experiment [4], the system named is Southern Armyworm (Spodoptera eridania), 2nd Instar Larvae. In words: Southern armyworm leaf-dip test, 2nd instar larvae. Particulars: foliar, 120 h, observation at 5 days, read-out: mortality in comparison with untreated controls. The procedure:
2.1 Southern Armyworm (Spodoptera eridania), 2nd Instar Larvae
The active compounds were formulated for testing the activity against insects and arachnids as a 10.000 ppm solution in a mixture of 35% acetone and water, which was diluted with water, if needed.
A Sieva lima bean leaf expanded to 78 cm in length is dipped in the test solution with agitation for 3 seconds and allowed to dry in a hood. The leaf is then placed in a 100×10 mm petri dish containing a damp filter paper on the bottom and ten 2nd instar caterpillars. At 5 days, observations are made of mortality, reduced feeding, or any interference with normal molting.

In experiment [5] the test system is Orchid Thrips (dichromothrips corbetti). Nature of the experiment: Orchid thrips floral-immersion test. Conditions: 96 h, adults, after 4 days, read-out: mortality compared to untreated controls. The procedure:
2.7 Orchid Thrips (dichromothrips corbetti)
Dichromothrips corbetti adults used for bioassay were obtained from a colony maintained continuously under laboratory conditions. For testing purposes, the test compound was diluted to a concentration of 500 ppm (wt compound:vol diluent) in a 1:1 mixture of acetone:water, plus 0.01% Kinetic® surfactant.
Thrips potency of each compound was evaluated by using a floral-immersion technique. Plastic petri dishes were used as test arenas. All petals of individual, intact orchid flowers were dipped into treatment solution for approximately 3 seconds and allowed to dry for 2 hours. Treated flowers were placed into individual petri dishes along with 10-15 adult thrips. The petri dishes were then covered with lids. All test arenas were held under continuous light and a temperature of about 28° C. for duration of the assay. After 4 days, the numbers of live thrips were counted on each flower, and along inner walls of each petri dish. The level of thrips mortality was extrapolated from pretreatment thrips numbers.

Turning to `CC(C=NNC(=O)c1ccccn1)=Cc1ccccc1` [Compound 156], the mortality – broadly, the share of the test organisms that died – at 300 ppm in experiment [1] was over 80%; in experiment [2] it was over 75%.
For the compound `CC(C=NNC(=O)Cc1cccc2ccccc12)=Cc1cccc(F)c1` [Compound 21], the mortality at 300 ppm in experiment [3] is over 75%.
As to `CC(C=NNC(=O)c1cccs1)=Cc1ccccc1` [Compound 50], the mortality at 300 ppm in experiment [1] was over 80%.
With `CC(C=NNC(=O)c1ccc(C)cc1)=Cc1ccccc1` [Compound 183], the mortality at 300 ppm in experiment [1] is over 80%; in experiment [4] it was over 80%; in experiment [3], over 75%.
With `CC(C=NNC(=O)c1ccc(C)s1)=Cc1ccc(OC(F)F)cc1` [Compound 91], the mortality at 300 ppm in experiment [3] was over 75%.
`CC(C=NNC(=O)c1[nH]cnc1C)=Cc1cccc(F)c1` [Compound 144]: the mortality at 500 ppm in experiment [5] is over 95%.
As to `CCC(C=NNC(=O)c1ccc(F)cc1)=Cc1ccccc1` [Compound 189], the mortality at 300 ppm in experiment [1] was over 80%.
On the same count and under the same terms, the result for `CC(C=NNC(=O)c1ccccn1)=Cc1ccc(F)cc1` [Compound 158] reads over 80%.
Regarding `CC(C=NNC(=O)c1[nH]cnc1C)=Cc1ccc(Cl)cc1Cl` [Compound 138], in experiment [3], the mortality at 300 ppm was over 75%.
As for `CCC(C=NNC(=O)c1ccccc1F)=Cc1ccccc1` [Compound 193], the mortality at 300 ppm in experiment [1] is over 80%.
As for `O=C(NN=CC=Cc1ccccc1)c1ccc(Cl)s1` [Compound 96], the mortality at 300 ppm in experiment [3] is over 75%.
Take `COc1ccccc1C(=O)NN=CC(C)=Cc1cccc(F)c1` [Compound 187]: in experiment [1], the mortality at 300 ppm is over 80%.
